Laboratory results published in patent publication US20240150366A1, “4-AMINOQUINAZOLINE COMPOUND” (Astellas Pharma Inc., priority 2021, published 2024).

Experiments:
[1] = biological target: KRAS G12D/SOS/c-Raf complex (Homo sapiens (Human), UniProt P01116, G12D); experiment: KRAS G12D/SOS/c-Raf complex formation inhibitory activity (TR-FRET); type: biochemical; conditions: human recombinant proteins, 1 hour at room temperature, read-out: IC50, KRAS G12D/SOS/c-Raf complex formation inhibition
Method: Using human recombinant KRAS G12D, SOS and c-Raf proteins, the inhibitory activity of subject compounds on the complex formation of the proteins was examined by a time-resolved fluorescence resonance energy transfer (TR-FRET) method.
Biotinylated AviTag-KRAS G12D (amino acid region of 1-185, GDP) (2.5 μL; 400 nM) and subject compounds dissolved in an assay buffer (50 mM HEPES, 150 mM NaCl, 5 mM MgCl2, 0.05% Tween 20, pH 7.0) were added to a 384-well plate (from Corning) in a liquid volume of 2.5 μL at 40,000 nM to 40 nM. Son of Sevenless (SOS) (amino acid region of 564-1049, 2.5 μL; 1.3 μM) and c-Raf (amino acid region of 51-131) GST (2.5 μL; 130 nM) containing GTP (from Sigma-Aldrich; 2 μM) were added to the plate, and the plate was allowed to stand for 1 hour at room temperature. Then, a mixture liquid (10 μL) of LANCE Ulight-anti-GST (from PerkinElmer; 120 nM) and LANCE Eu-W1024 labeled Streptoavidin (from PerkinElmer; 100 ng/mL) was added, and the 620-nm and 665-nm fluorescence intensities were measured using EnVision 2104 (from PerkinElmer) under the conditions of an excitation wavelength of 337 nm. After standardizing the values with the fluorescence intensity at a reference wavelength of 620 nm, the 50% inhibitory concentrations (IC50) were calculated by Sigmoid-Emax model nonlinear regression analysis with the signaling value in treatment with the solvent taken as 0% inhibition and with the signaling value without the addition of GTP taken as 100% inhibition.

[2] = system: ERK phosphorylation (Thr202/Tyr204) in KRAS G12D mutant-positive pancreatic cancer line AsPC-1; experiment: ERK phosphorylation inhibitory activity in AsPC-1 (cell ELISA); type: cell-based; conditions: Homo sapiens, ASPC1, 2 h, read-out: IC50, ERK phosphorylation inhibition
Method: The ERK phosphorylation inhibitory activities of subject compounds were evaluated by measuring phosphorylation of the 202th threonine (Thr202) and the 204th tyrosine (Tyr204) of ERK located downstream of the KRAS signal by cell ELISA.
AsPC-1 cells (ATCC, CRL-1682) were seeded at 36 μL/well on a 384-well plate (from Greiner bio-one) to give 2.0×10^4 cells per well. As for the cell culture conditions, RPMI-1640 medium (from Sigma-Aldrich) containing 10% fetal bovine serum (from GE Life Sciences) was used in the presence of 5% CO2 at 37° C.
The next day, the subject compounds (6 points having final concentrations in the range of 10 μM to 0.3 nM), trametinib (MEK inhibitor) of a final concentration of 1 μM as a positive control and DMSO, which was the solvent for the subject compounds, as a negative control were diluted 100-fold with a fresh medium and were each added at 4 μL per well, followed by culturing for 2 hours. After culturing, a 30% glyoxal solution (40% glyoxal [from Wako] was diluted with Phosphate Buffered Saline [PBS; from Wako) was quickly added at 30 μL per well, and the plate was allowed to stand for an hour at room temperature to thus immobilize the cells. Then, the plate was centrifuged (110× g, seven seconds, hereinafter centrifugation was performed under the same conditions unless otherwise specified) to remove the supernatant, and 0.1% Triton X-100 (from Amersham Biosciences)—containing PBS was added at 20 μL per well. After allowing the plate to stand for 10 minutes at room temperature, the supernatant was removed by centrifugation, and the same operation was further repeated. Next, 0.5% sodium dodecyl sulfate (SDS; from Invitrogen)-containing PBS was added at 20 μL per well. The plate was allowed to stand at room temperature for 30 minutes and was then centrifuged to remove the supernatant. Subsequently, a blocking solution (Intercept Blocking Buffer; from LI-COR Biosciences) was added at 20 μL per well, and the plate was allowed to stand for an hour at room temperature. The supernatant was removed by centrifugation, and an ERK (Thr202/Tyr204) phosphorylation antibody (Phospho-p44/42 MAPK (Erk 1/2) (Thr202/Tyr204) (D13.14.4E) XP Rabbit mAb; from Cell Signaling Technology) diluted 2,500-fold with the blocking solution was added at 10 μL per well as a primary antibody. The plate was allowed to stand at 4° C. overnight.
The next day, the plate was centrifuged to remove the supernatant, and 0.05% Tween-20-containing PBS (from Thermo Scientific; 20× PBS Tween-20 was diluted 20-fold with ion exchange water and used) was added at 20 μL per well. The supernatant was removed by centrifugation to thus wash each well. The washing was performed three times in total. After washing, an IRDye 800CW Goat anti-Rabbit IgG (from LI-COR Biosciences) diluted 1,000-fold with the blocking solution was added at 10 μL per well as a secondary antibody, and the plate was allowed to stand for an hour at room temperature. The plate was centrifuged to remove the supernatant, and each well was washed three times with 0.05% Tween-20-containing PBS in the same manner as after the primary antibody reaction. Centrifugation after the third washing was performed at 171×g for 17 seconds. After removing the supernatant, the plate was dried as it was with air at room temperature for three hours or more, and the 800-nm fluorescent signals were measured with Aerius (from LI-COR Biosciences).
With the signaling value at the time of addition of DMSO taken as 0% inhibition and with the signaling value at the time of addition of […] trametinib taken as 100% inhibition, the 50% inhibition values (IC50) were calculated by Sigmoid-Emax model nonlinear regression analysis.

[3] = system: KRAS G12D mutant-positive pancreatic cancer line AsPC-1; experiment: Non-anchorage-dependent cell growth inhibitory activity in AsPC-1 (spheroid 3D culture); type: cell-based; conditions: Homo sapiens, ASPC1, 144 h, read-out: IC50, non-anchorage-dependent cell growth inhibition
Method: The non-anchorage-dependent cell growth inhibitory activities of subject compounds were evaluated by spheroid 3D cell culture.
AsPC-1 cells were seeded at 36 μL/well on a low-cell-adhesive round bottom 384-well plate (Prime Surface: from Sumitomo Bakelite) to give 5×10^2 cells per well. The cell culture was performed under the same conditions as in the Test Example 2.
The next day, the subject compounds (6 points having final concentrations in the range of 10 μM to 3.0 nM) and DMSO, which was the solvent for the subject compounds, as a negative control were diluted 100-fold with a fresh medium and were each added at 4 μL per well. After culturing in the presence of 5% CO2 at 37° C. for six days, CellTiter Glo 2.0 (from Promega) was added at 20 μL per well. After stirring with a plate mixer (from FINEPCR) at normal temperature for an hour, the luminescent signals were measured with ARVO X3 (from PerkinElmer).
With the signaling value in treatment with DMSO taken as 0% inhibition and with the signaling value in the medium alone without cells taken as 100% inhibition, the 50% inhibition values (IC50) were calculated by Sigmoid-Emax model nonlinear regression analysis.

Sequence of KRAS G12D/SOS/c-Raf complex (P01116 other isoform, or with tags, fused parts or gaps G12D): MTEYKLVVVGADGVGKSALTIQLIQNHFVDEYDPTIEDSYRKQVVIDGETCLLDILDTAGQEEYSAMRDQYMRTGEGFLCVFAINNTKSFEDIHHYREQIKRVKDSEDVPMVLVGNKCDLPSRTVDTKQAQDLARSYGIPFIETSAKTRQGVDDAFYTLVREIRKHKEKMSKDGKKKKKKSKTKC

Row | Structure (SMILES) | IC50 [1] [nM] | IC50 [2] [nM] | IC50 [3] [nM]
1 | Cc1c(F)cc2[nH]ncc2c1-c1c(C2CC2)cc2c(N3C[C@@H]4C[C@H]3CN4)nc(OC3CCOCC3)nc2c1OCc1ccc(Cc2ncn(C3CC3)n2)cc1 [Example 14, 6-cyclopropyl-8-({4-[(1-cyclopropyl-1H-1,2,4-triazol-3-yl)methyl]phenyl}methoxy)-4-[(1 S,4S)-2,5-diazabicyclo[2.2.1]heptan-2-yl]-7-(6-fluoro-5-methyl-1H-indazol-4-yl)-2-[(oxan-4-yl)oxy]quinazoline] | 143 | 42 | 154
2 | Cc1c(F)cc2[nH]ncc2c1-c1c(C2CC2)cc2c(N3C[C@@H]4C[C@H]3CN4)nc(OC3CCOCC3)nc2c1OCc1ccc(Cc2nnn(C)n2)cc1 [Example 16, 6-cyclopropyl-4-[(1S,4S)-2,5-diazabicyclo[2.2.1]heptan-2-yl]-7-(6-fluoro-5-methyl-1H-indazol-4-yl)-8-({4-[(2-methyl-2H-tetrazol-5-yl)methyl]phenyl}methoxy)-2-[(oxan-4-yl)oxy]quinazoline] | 226 | 93 | 216
